Assay results published in patent publication US7790769B2, “Merocyanine derivatives” (Ciba Corporation, priority 2005, dated 2010).

Assay: Solubility behaviour in water and cosmetic solvents/oils
Type: physicochemical
Details: for Solubility behaviour [%], Cyclomethicone: solvent: Cyclomethicone; for Solubility behaviour [%], Finsolve TN: solvent: Finsolve TN; for Solubility behaviour [%], Jojoba Oil: solvent: Jojoba Oil; for Solubility behaviour [%], Mineral Oil: solvent: Mineral Oil; for Solubility behaviour [%], Mygliol: solvent: Mygliol; for Solubility behaviour [%], Polydecene: solvent: Polydecene; for Solubility behaviour [%], Propyleneglycol: solvent: Propyleneglycol; for Solubility behaviour [%], (Water): solvent: water

Solubility behaviour [%], Cyclomethicone | Solubility behaviour [%], Finsolve TN | Solubility behaviour [%], Jojoba Oil | Solubility behaviour [%], Mineral Oil | Solubility behaviour [%], Mygliol | Solubility behaviour [%], Polydecene | Solubility behaviour [%], Propyleneglycol | Solubility behaviour [%], (Water) | SMILES
0.540% | >50% | >50% | 1.514% | >50% | 0.734% | 0.766% | 0.000% | CCCCC(CC)CN(CC(CC)CCCC)C1=CC(=C(C#N)C#N)CCC1 (stereo not shown)
0.509% | >5% | 2.470% | 0.569% | >5% | 0.367% | 0.361% | 0.000% | CCCCC(CC)CN(CC(CC)CCCC)C1=CC(=C(C#N)C#N)CC(C)(C)C1 (stereo not shown)
